From patent US4199570A, “1-N-Hetero containing aminoglycoside derivatives” (Shionogi & Co., Ltd., priority 1977, dated 1980)
Converted amounts (≈) assume the structure as drawn.

Key:
Type in all cases: cell-based
[1] = test system: Pseudomonas aeruginosa TB-121; test: MIC (Table 2); details: TB121, tobramycin resistant strain, read-out: Minimum Inhibitory Concentration (MIC)
[2] = test system: Staphylococcus epidermidis TB-302; test: MIC (Table 2); details: TB302, tobramycin resistant strain, read-out: Minimum Inhibitory Concentration (MIC)
Proteus vulgaris TB-615 [3] = test: MIC (Table 2); details: TB615, tobramycin resistant strain, read-out: Minimum Inhibitory Concentration (MIC)
[4] = test system: Staphylococcus epidermidis TB-775; test: MIC (Table 2); details: TB775, tobramycin resistant strain, read-out: Minimum Inhibitory Concentration (MIC)
[5] = test system: Pseudomonas aeruginosa TB-151; test: MIC (Table 2); details: TB151, tobramycin resistant strain, read-out: Minimum Inhibitory Concentration (MIC)
[6] = test system: Staphylococcus epidermidis TB-775; test: MIC (Table 3); details: TB775, read-out: Minimum Inhibitory Concentration (MIC)
[7] = test system: Pseudomonas aeruginosa TB-151; test: MIC (Table 3); details: TB151, read-out: Minimum Inhibitory Concentration (MIC)
Proteus vulgaris TB-615 [8] = test: MIC (Table 3); details: TB615, read-out: Minimum Inhibitory Concentration (MIC)
[9] = test system: Pseudomonas aerginosa TB-121; test: MIC (Table 3); details: TB121, read-out: Minimum Inhibitory Concentration (MIC)

Structure (SMILES)	MIC [1] [µg/mL]	MIC [2] [µg/mL]	MIC (Proteus vulgaris TB-615 [3]) [µg/mL]	MIC [4] [µg/mL]	MIC [5] [µg/mL]	MIC [6] [µg/mL]	MIC [7] [µg/mL]	MIC (Proteus vulgaris TB-615 [8]) [µg/mL]	MIC [9] [µg/mL]
NC[C@H]1O[C@H](O[C@H]2[C@H](O)[C@@H](O[C@H]3O[C@H](CO)[C@@H](O)[C@H](N)[C@H]3O)[C@H](NC(=O)C3(O)CNC3)C[C@@H]2N)[C@H](N)C[C@@H]1O [Comp. (1), 1-N-(3-hydroxyazetidine-3-carbonyl)tobramycin]	25 (≈ 44.1 µM)	12.5 (≈ 22.1 µM)	6.25 (≈ 11 µM)	> 100	3.13 (≈ 5.52 µM)	–	–	–	–
NC[C@H]1O[C@H](O[C@H]2[C@H](O)[C@@H](O[C@H]3O[C@H](CO)[C@@H](O)[C@H](N)[C@H]3O)[C@H](NC(=O)C3(O)CNC3)C[C@@H]2N)[C@H](O)[C@@H](O)[C@@H]1O [Comp. (2), 1-N-(3-hydroxyazetidine-3-carbonyl)kanamycin A]	25 (≈ 42.8 µM)	6.25 (≈ 10.7 µM)	6.25 (≈ 10.7 µM)	50 (≈ 85.7 µM)	6.25 (≈ 10.7 µM)	–	–	–	–
NC[C@H]1O[C@H](O[C@H]2[C@H](O)[C@@H](O[C@H]3O[C@H](CO)[C@@H](O)[C@H](N)[C@H]3O)[C@H](N)C[C@@H]2N)[C@H](O)[C@@H](O)[C@@H]1O [KM-A, kanamycin A]	> 100	12.5 (≈ 25.8 µM)	100 (≈ 206 µM)	> 100	> 100	–	–	–	–
NC[C@H]1O[C@H](O[C@H]2[C@H](O)[C@@H](O[C@H]3O[C@H](CO)[C@@H](O)[C@H](N)[C@H]3O)[C@H](N)C[C@@H]2N)[C@H](N)C[C@@H]1O [TOB, tobramycin]	100 (≈ 214 µM)	25 (≈ 53.5 µM)	50 (≈ 107 µM)	> 100	100 (≈ 214 µM)	100 (≈ 214 µM)	25 (≈ 53.5 µM)	50 (≈ 107 µM)	25 (≈ 53.5 µM)
